Laboratory results as given in PubChem BioAssay (NCI).
Values joined by “and” are separate entries in the source; they are usually repeats but may differ in a detail not shown here. Equal values may be shown once.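 Five concentrations, 48 hours, 96-well plates. At the GI50, growth is halved. TGI: concentration producing complete growth inhibition.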

Legend:
Assay in all cases: growth of human tumour cells (NCI), 48 h
CAKI-1 renal = system: CAKI-1 renal
CCRF-CEM leukemia = system: CCRF-CEM leukemia
HCT-116 colon = system: HCT-116 colon
HT29 colon = system: HT29 colon
IGROV1 ovarian = system: IGROV1 ovarian
KM12 colon = system: KM12 colon
NCI-H23 lung = system: NCI-H23 lung
SW-620 colon = system: SW-620 colon
TK-10 renal = system: TK-10 renal
U251 CNS = system: U251 CNS

SMILES | GI50 (CAKI-1 renal) [µM] | TGI (CAKI-1 renal) [µM] | GI50 (CCRF-CEM leukemia) [µM] | TGI (CCRF-CEM leukemia) [µM] | GI50 (HCT-116 colon) | TGI (HCT-116 colon) | GI50 (HT29 colon) | TGI (HT29 colon) | GI50 (IGROV1 ovarian) [µM] | TGI (IGROV1 ovarian) [µM] | GI50 (KM12 colon) [µM] | TGI (KM12 colon) [µM] | GI50 (NCI-H23 lung) | TGI (NCI-H23 lung) | GI50 (SW-620 colon) | TGI (SW-620 colon) | GI50 (TK-10 renal) [µM] | TGI (TK-10 renal) [µM] | GI50 (U251 CNS) | TGI (U251 CNS)
N#C/C(=C/c1cccs1)c1cccs1 | > 100 | > 100 | > 100 | > 100 | > 100 µM | > 100 µM | > 100 µM | > 100 µM | > 100 | > 100 | > 100 | > 100 | > 100 µM | > 100 µM | > 100 µM | > 100 µM | > 100 | > 100 | > 100 µM | > 100 µM
CCCN(CCC)c1ccc(C=O)c(OC)c1 | 22.7 | 80.4 | 24.4 | > 100 | 25.5 µM | > 100 µM | 17 µM | 70.8 µM | 32.8 | > 100 | 23.7 | 83.8 | 22.2 µM | > 100 µM | 22.9 µM | > 100 µM | 24.2 | 86.1 | 28.1 µM | > 100 µM
Cc1ccc2nc(NC(=O)CSC(=S)N3CCN(Cc4ccccc4)CC3)sc2c1 | > 85.8 | > 100 | > 100 | > 100 | > 96.7 µM | > 100 µM | 75.2 µM | > 100 µM | > 100 | > 100 | > 94.3 | > 100 | > 100 µM | > 100 µM | > 100 µM | > 100 µM | > 100 | > 100 | > 100 µM | > 100 µM
COc1cc2c3c(n(CCCn4cccn4)c(=O)c2cc1OC)-c1cc2c(cc1C3=O)OCO2 | 0.577 |  | 0.341 | 2.34 | 1.47 µM | 15.9 µM | 2.56 µM | 25.4 µM | 1.8 | 29 | 5.11 | > 54.5 | 0.807 µM | 4.38 µM | 1.39 µM | > 100 µM | 35.1 | > 100 | 0.724 µM | > 40.4 µM
CCCCCn1ncc(-c2c(O)c(O)cc3c(O)c(-c4c(C)cc5c(-c6cnn(CCCCC)n6)c(O)c(O)cc5c4O)c(C)cc23)n1 | 0.156 | 4.24 | 0.0927 | 6.3 | 0.0262 µM | 4.07 µM | 0.12 µM | 3.45 µM | 0.182 | 4.75 | 0.101 | 5.25 | 0.078 µM | 3.66 µM | 0.117 µM | 6.26 µM | 0.126 | 5.05 | 0.0351 µM | 1.89 µM
CCN(CCc1ccc(F)cc1)c1ccc(CO)c(Cl)c1 | 4.23 | 17.2 | 15.6 | 47.3 | 1.85 µM | 13.5 µM | 11.3 µM | 27.3 µM | 0.824 | 7.11 | 15 | 30 | 12.2 µM | 31 µM | 8.84 µM | 24.2 µM | 0.366 | 1.7 | 4.06 µM | 17.3 µM
Nc1nc(N)c2ncn(Cc3c(Cl)cccc3Cl)c2n1 |  | > 100 |  | > 100 |  | > 100 µM |  | > 100 µM |  | > 100 |  | > 100 |  | > 100 µM |  | > 100 µM |  | > 100 |  | > 100 µM
c1ccc(CN2CCC3(CC2)ONC2=NCCN23)cc1 | 30.5 | > 100 | 31 | > 100 | 49.1 µM | > 100 µM | 61.4 µM | > 100 µM | 35.8 | > 100 | 58.5 | > 100 | 54.9 µM | > 100 µM | 75 µM | > 100 µM | 72 | > 100 | 60.1 µM | > 100 µM
COC(=O)/C=C\C1C(C(=O)OC)C2(C(=O)OC)CCC1(C(=O)OC)N2 (stereo not drawn) |  | 6.82 |  | 21.8 |  | 27.6 µM |  | 45.7 µM |  | > 58.1 |  | 36.7 |  | 36.4 µM |  | 9.38 µM |  | 15 |  | 32.7 µM
COc1ccc(S(=O)(=O)N2CCCCC2)cc1NC(=O)c1[nH]c(C)c2c1CCCCC2=O | 0.419 | 56.7 | 3.14 | > 100 | 1.32 µM | 19.3 µM | 0.822 µM | 21.7 µM | 1.45 | 44.3 | 4.36 | > 100 | 3.11 µM | > 100 µM | 8.04 µM | > 100 µM | 0.658 | 38.1 | 2.29 µM | 70.4 µM
CCCCCCCCCCCCCCCC[N+](C)(C)C | 2.05 | 10.7 | 0.656 | 2.44 | 0.258 µM and 1.01 µM | 1.04 µM and 2.57 µM | 0.0658 µM and 0.516 µM | 1.03 µM and 1.97 µM | 0.154 | 0.359 | 1.36 | 2.79 | 0.292 µM and 1.46 µM | 1.51 µM and 3.8 µM | 0.239 µM and 1.31 µM | 0.859 µM and 2.97 µM | 1.11 | 2.81 | 0.139 µM and 0.567 µM | 0.271 µM and 1.97 µM
COc1ccccc1NC(=O)N/C(N)=N/c1nc2ccccc2s1 | 0.062 | > 100 | 0.111 | > 100 | 0.0497 µM | > 100 µM | 0.0389 µM | > 100 µM | 0.0884 | > 100 | 0.0505 | > 100 | 0.15 µM | > 100 µM | 0.0531 µM | > 100 µM |  | > 100 | 0.0655 µM | > 100 µM
Cc1cc(Cl)ccc1N1C(=O)C(=O)C(c2nc3ccccc3s2)/C(=N\NC(=O)c2ccccc2O)C1=O (stereo not drawn) |  | > 100 |  | > 100 |  | > 100 µM |  | > 100 µM |  | > 100 |  | > 100 |  | > 100 µM |  | > 100 µM |  | > 100 |  | > 100 µM
